Measured values from the supplement of paper PMC5908809.

How the values were obtained:
KHYG-1 (IL-2 2.5 ng/mL) [1] = assay: drug sensitivity score (DSS) (DSS units); higher = more sensitive; extreme values may be limits of the assay; settings: 72 h
DERL-7 (IL-2 2.5 ng/mL) [2] = assay: as above; settings: 72 h
KAI3 (IL-2 2.5 ng/mL) [3] = assay: as above; settings: 72 h
[4] = system: normal primary NK cells, pool 1 (3 donors), resting (IL-2 0 ng/mL); assay: as above; settings: 72 h
[5] = system: normal primary NK cells, pool 1 (3 donors) (IL-2 2.5 ng/mL); assay: as above; settings: 72 h
NKL (IL-2 2.5 ng/mL) [6] = assay: as above; settings: 72 h
[7] = system: normal primary NK cells, pool 2 (3 donors) (IL-2 2.5 ng/mL); assay: as above; settings: 72 h
IMC-1 (IL-2 20 ng/mL) [8] = assay: as above; settings: 72 h
NK-YS (IL-2 2.5 ng/mL) [9] = assay: as above; settings: 72 h
NK-92 (IL-2 2.5 ng/mL) [10] = assay: as above; settings: 72 h
SNK-6 (IL-2 2.5 ng/mL) [11] = assay: as above; settings: 72 h
YT (IL-2 2.5 ng/mL) [12] = assay: as above; settings: 72 h
[13] = system: normal primary NK cells, pool 3 (3 donors) (IL-2 2.5 ng/mL); assay: as above; settings: 72 h
[14] = system: normal NK cells expanded with K562-aAPC; assay: percent inhibition of viability; higher = more inhibition; settings: 72 h, IL-2 2.5 ng/mL
Experimental: (§1)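 Drug sensitivity and resistance testing on K562-aAPC-expanded normal NK cells: 5 concentrations (10-fold steps over a 10,000-fold range), 72 h at 37 °C, viability by CellTiter-Glo normalised to DMSO and benzethonium chloride controls; DSS from the fitted curve.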

KHYG-1 (IL-2 2.5 ng/mL) [15] = assay: as above; settings: 72 h
DERL-7 (IL-2 2.5 ng/mL) [16] = assay: as above; settings: 72 h
KAI3 (IL-2 2.5 ng/mL) [17] = assay: as above; settings: 72 h
[18] = system: normal primary NK cells, pool 1 (3 donors), resting (IL-2 0 ng/mL); assay: as above; settings: 72 h
[19] = system: normal primary NK cells, pool 1 (3 donors) (IL-2 2.5 ng/mL); assay: as above; settings: 72 h
NKL (IL-2 2.5 ng/mL) [20] = assay: as above; settings: 72 h
[21] = system: normal primary NK cells, pool 2 (3 donors) (IL-2 2.5 ng/mL); assay: as above; settings: 72 h
IMC-1 (IL-2 20 ng/mL) [22] = assay: as above; settings: 72 h
NK-YS (IL-2 2.5 ng/mL) [23] = assay: as above; settings: 72 h
NK-92 (IL-2 2.5 ng/mL) [24] = assay: as above; settings: 72 h
SNK-6 (IL-2 2.5 ng/mL) [25] = assay: as above; settings: 72 h
YT (IL-2 2.5 ng/mL) [26] = assay: as above; settings: 72 h
[27] = system: normal primary NK cells, pool 3 (3 donors) (IL-2 2.5 ng/mL); assay: as above; settings: 72 h
[28] = system: normal NK cells expanded with K562-aAPC; assay: drug sensitivity score (DSS) (DSS units); higher = more sensitive; extreme values may be limits of the assay; settings: 72 h; IL-2 2.5 ng/mL
Experimental: as §1

COc1nc(N)nc2c1ncn2[C@@H]1O[C@H](CO)[C@@H](O)[C@@H]1O [Nelarabine] (max concentration tested 10000 nM)
Settings	drug sensitivity score
DERL-7 (IL-2 2.5 ng/mL) [2]	4.29
IMC-1 (IL-2 20 ng/mL) [8]	0
KAI3 (IL-2 2.5 ng/mL) [3]	8.27
KHYG-1 (IL-2 2.5 ng/mL) [1]	1.02
NK-92 (IL-2 2.5 ng/mL) [10]	2.5
NK-YS (IL-2 2.5 ng/mL) [9]	0.54
NKL (IL-2 2.5 ng/mL) [6]	4.79
SNK-6 (IL-2 2.5 ng/mL) [11]	0
YT (IL-2 2.5 ng/mL) [12]	0
[4]	25.3
[5]	14.4
[7]	13.8
[13]	15.7
[28]	6.13

percent inhibition of viability [%]
Settings	1 nM	10 nM	100 nM	1000 nM	10000 nM
DERL-7 (IL-2 2.5 ng/mL) [16]	1.44	7.77	2.31	12.4	46.1
IMC-1 (IL-2 20 ng/mL) [22]	-3.75	-1.52	-5.24	-11.7	-10.4
KAI3 (IL-2 2.5 ng/mL) [17]	15.6	16.4	12.6	25.8	53.3
KHYG-1 (IL-2 2.5 ng/mL) [15]	4.68	-0.73	-1.55	-1.11	27.2
NK-92 (IL-2 2.5 ng/mL) [24]	8.71	-6.85	4.79	8.69	32
NK-YS (IL-2 2.5 ng/mL) [23]	2.42	-3.62	0.15	3.98	14.6
NKL (IL-2 2.5 ng/mL) [20]	5.77	8.18	3.83	10.4	56.7
SNK-6 (IL-2 2.5 ng/mL) [25]	2.48	-13.9	-9.19	-25.6	-2.36
YT (IL-2 2.5 ng/mL) [26]	2.6	-3.18	0.56	1.65	5.92
[14]	0.53	1.13	1.94	15.5	66.8
[18]	14.4	22.7	58.9	88.3	91.7
[19]	-10.4	-4.07	23.9	61.1	92.1
[21]	-2.48	5	21.2	59.8	82.4
[27]	11.4	8.39	27.7	65.5	82.3

C[C@]12C=CC(=O)C=C1CC[C@@H]1[C@@H]2[C@@H](O)C[C@@]2(C)[C@H]1CC[C@]2(O)C(=O)CO [Prednisolone] (max concentration tested 10000 nM)
Settings	drug sensitivity score
DERL-7 (IL-2 2.5 ng/mL) [2]	26.2
IMC-1 (IL-2 20 ng/mL) [8]	0
KAI3 (IL-2 2.5 ng/mL) [3]	0
KHYG-1 (IL-2 2.5 ng/mL) [1]	6.17
NK-92 (IL-2 2.5 ng/mL) [10]	0
NK-YS (IL-2 2.5 ng/mL) [9]	0
NKL (IL-2 2.5 ng/mL) [6]	17.5
SNK-6 (IL-2 2.5 ng/mL) [11]	4.24
YT (IL-2 2.5 ng/mL) [12]	3.72
[4]	23
[5]	15.3
[7]	13.2
[13]	8.07
[28]	16.2

percent inhibition of viability [%]
Settings	1 nM	10 nM	100 nM	1000 nM	10000 nM
DERL-7 (IL-2 2.5 ng/mL) [16]	-5.13	1.92	70	98	99.5
IMC-1 (IL-2 20 ng/mL) [22]	-3.99	-3.97	-9.73	-19.4	-17
KAI3 (IL-2 2.5 ng/mL) [17]	-9.17	-13.6	-7.78	-7.77	-8.06
KHYG-1 (IL-2 2.5 ng/mL) [15]	-5.42	-2.27	10.1	29.8	34.5
NK-92 (IL-2 2.5 ng/mL) [24]	-16	-15.5	-34.4	-24.4	-24.4
NK-YS (IL-2 2.5 ng/mL) [23]	-2.75	-1.1	-1.97	-1.53	5.33
NKL (IL-2 2.5 ng/mL) [20]	3.58	12	48.8	51.4	55.3
SNK-6 (IL-2 2.5 ng/mL) [25]	5.43	22.4	7.45	10.2	35.9
YT (IL-2 2.5 ng/mL) [26]	-0.96	6.16	13.1	20.2	18.8
[14]	-2.45	5	39.2	57.3	63.9
[18]	4.52	3.57	56.8	80.2	89.9
[19]	1.14	10.2	27.4	63.4	78.3
[21]	-6.45	-3.01	28.6	51.2	65
[27]	-9.31	-4.01	13.1	36.8	47.6

NC(=O)c1cccc(-c2cccc(OC(=O)NC3CCCCC3)c2)c1 [URB597] (max concentration tested 1000 nM)
Settings	drug sensitivity score
DERL-7 (IL-2 2.5 ng/mL) [2]	0
IMC-1 (IL-2 20 ng/mL) [8]	0
KAI3 (IL-2 2.5 ng/mL) [3]	0.21
KHYG-1 (IL-2 2.5 ng/mL) [1]	0
NK-92 (IL-2 2.5 ng/mL) [10]	0
NK-YS (IL-2 2.5 ng/mL) [9]	0
NKL (IL-2 2.5 ng/mL) [6]	2.41
SNK-6 (IL-2 2.5 ng/mL) [11]	0
YT (IL-2 2.5 ng/mL) [12]	0
[4]	0
[5]	0
[7]	0
[13]	0
[28]	0

percent inhibition of viability [%]
Settings	0.1 nM	1 nM	10 nM	100 nM	1000 nM
DERL-7 (IL-2 2.5 ng/mL) [16]	11	4.35	12	5.02	5.08
IMC-1 (IL-2 20 ng/mL) [22]	-4	4.78	2.31	4	3.07
KAI3 (IL-2 2.5 ng/mL) [17]	-3.62	-6.19	-2.65	-2.84	16.1
KHYG-1 (IL-2 2.5 ng/mL) [15]	-1.98	3.31	2.01	2.83	7.66
NK-92 (IL-2 2.5 ng/mL) [24]	1.97	3.05	12.2	-3.48	7.28
NK-YS (IL-2 2.5 ng/mL) [23]	-1.3	0.73	8.14	5.17	8.51
NKL (IL-2 2.5 ng/mL) [20]	3.64	0.02	13.3	15.1	14.2
SNK-6 (IL-2 2.5 ng/mL) [25]	-7.3	9.09	10.3	2.22	2.83
YT (IL-2 2.5 ng/mL) [26]	1.76	2.28	2.53	3.49	9.4
[14]	-5.77	-3.62	-1	7.42	7.56
[18]	-1.65	-9.18	1.01	-15.8	-6.01
[19]	5.21	-3.54	1.12	-15.5	-7.59
[21]	-11.5	-5.88	15.1	-7.18	8.87
[27]	-10.1	-1.33	5.88	-9.83	6.07
